Measurements from patent publication US20040009486A1, “Compositions and methods utilizing DNA polymerases” (priority 1999, published 2004).

Key:
Assay type in all cases: biochemical
primer:template = assay: Fidelity screen with rhodamine labeled non-complementary ddNTP; conditions: R110-labeled incorrect ddNTP
Protocol: Reactions (10 μl) contained 1 unit of enzyme in 1× reaction buffer, 15 nM primer template, 25 nM of unlabeled complementary ddNTP, and 25, 100, 500, or 1000 nM of rhodamine labeled non-complementary ddNTP in four separate reactions. The reactions were incubated in a Perkin-Elmer 9600 for 25 cycles as follows: 96° C. for 10 s, 50° C. for 5 s, and 60° C. for 30 s. The reactions were then quenched with ice-cold 0.2 M EDTA (final concentration) and the products were purified from unincorporated rhodamine labeled ddNTPs and analyzed as described above.
Fidelity was determined as the tendency of a DNA polymerase to incorporate the correct nucleotide in the presence of increasing amounts of a non-complementary nucleotide. These assays employed constant amounts of primer:template, an unlabeled complementary ddNTP and DNA polymerase, and various concentrations of a rhodamine-labeled non-complementary ddNTP, as described in the Experimental Protocol. The amount of misextended primers is plotted against the ratio of rhodamine-labeled incorrect ddNTP/unlabeled correct ddNTP (FIG. 18 panels A and B). We performed similar assays for all possible mispairs (Table IX).
To address these concerns, the insertion fidelity of the JDF-3 P410L/A485T and Taq F667Y mutants was compared. In the first set of fidelity assays, a constant amount of primer:template, an unlabeled complementary ddNTP, and increasing concentrations of R110-labeled non-complementary ddNTP was used (Materials and Methods). […] The amount of misextended primers was determined and plotted against the ratio of R110-labeled incorrect ddNTP/unlabeled correct ddNTP (FIG. 27, panels A and B). Similar assays for all 12 possible mispairs was performed (ddG:dT, ddT:dG, ddT:dC, ddC:dT, ddC:dA, ddA:dC, ddA:dG, ddG:dA, ddT:dT, ddC:dC, ddA:dA, ddG:dG). […] The other mispairs are formed less frequently, and at similar rates for the JDF-3 P410L/A485T and Taq F667Y mutants (data not shown).
Fidelity assays using labeled ddNTPs (10 μl) contained 1 unit DNA polymerase in 1× reaction buffer, 15 nM primer: template, 25 nM of unlabeled complementary ddNTP, and 25, 100, 500, or 1000 nM of rhodamine-labeled non-complementary ddNTP in four separate reactions. The reactions were incubated in a Perkin-Elmer 9600 for 25 cycles as follows: 96° C. for 10 s, 50° C. for 5 s, and 60° C. for 30 s. The reactions were quenched and analyzed as above.

[1] = system: pBL25C and Temp-A, Temp-T, Temp-C, or Temp-G; assay: Rhodamine labeled ddNTP incorporation, TAMRA- and R110-ddNTPs (FIG. 16)
Protocol: These experiments were performed using 1 unit of enzyme, 15 nM primer:template (pBL25C and Temp-A, Temp-T, Temp-C, or Temp-G in four separate reactions), and 50 nM dye-ddNTP (TAMRA- or R110-labeled). The reactions were incubated at 60° C. for 10 minutes and then quenched with ice-cold 0.2 M EDTA (final concentration). The products were purified from unincorporated dye-labeled ddNTPs and analyzed as described above.
Relative incorporation of rhodamine labeled-ddNTPs by the JDF-3 P410L/A485T and Taq F667Y mutants was determined. We used both TAMRA- and R 110-labeled ddNTPs, and the amount of incorporated dye-ddNTPs was measured in fluorescense units. These experiments were performed using pBL25C as the primer, and Temp-A, Temp-T, Temp-C, or Temp-G as the complementary template in four separate reactions. The only difference between these four primer:template systems is the SNP site, thereby eliminating the possibility that primer:template sequence has an effect on dye-ddNTP incorporation. […] Gardner and Jack had also observed variation in the incorporation of ribonucleotides by the A488L mutant (equivalent to JDF-3 A485) of Vent DNA polymerase (from archaeon Thermococcus litoralis)^15.
We performed similar rhodamine labeled-ddNTP incorporation experiments using the same number of units of Taq F667Y.

pFL-35:pBluescript = assay: Fidelity assay with unlabeled ddNTPs; conditions: compared to JDF-3 P410L/A485T
Protocol: A second set of fidelity assays was conducted to address the contribution of rhodamine dye to high ddG:dT and ddT:dC misinsertion frequency. A fluorescently labeled primer (2.5 nM pFL35) opposite dT in the template strand was extended, in reactions containing either correct (ddA) or incorrect (ddG) unlabeled ddNTPs (at concentrations of 1.25 nM to 10 nM) ([…]). Similar experiments were performed in which primer extension occured opposite dC in the template strand, in the presence of correct (ddG) or incorrect (ddT) unlabeled ddNTPs (FIG. 28 panel B). Incorporation of ddNMP at the 3′-end of the primer was detected as a shift in primer mobility.
Fidelity assays using unlabeled ddNTPs (10 μl) contained 2.5 nM primer:template (pFL-35:pBluescript), 1 U DNA polymerase, and 1× reaction buffer. Complementary or non-complementary ddNTP was added to the reaction at concentrations of 0, 1.25, 10, 50, or 100 nM. The reactions were incubated in a Perkin-Elmer 9600 for 25 cycles as follows: 96° C. for 10 s, 50° C. for 5 s, and 60° C. for 30 s, and then analyzed as describe above.

Taq F667Y: ThermoSequenase, Taq F667Y mutant DNA polymerase from Amersham Pharmacia Biotech
ddG:dT mispair formation frequency, higher than JDF-3 P410L/A485T (primer:template): 20 fold
ddT:dC mispair formation frequency, higher than JDF-3 P410L/A485T (primer:template): 3 fold
preference order of ddNTP bases [1]: G>C>A>T
misincorporation of unlabeled ddNTPs (pFL-35:pBluescript): greater tendency to misincorporate unlabeled ddG opposite dT, and unlabeled ddT opposite dC
